Assay results: patent US11629171B2, “Beta-hairpin peptidomimetics” (POLYPHOR AG, priority 2017, dated 2023)
Values after ≈ are worked out from the molar mass of the structure shown. Where a SMILES comes first, the peptide text is derived from it. Bridges are numbered along the chain shown (N, C = ends). Roman numbers before positions name the chains, in order. [ ]: non-standard residue; d: D form. Thr(ol) = C[C@@H](O)[C@H](N)CO; Tle = CC(C)(C)[C@H](N)C(=O)O; Hiv = CC(C)[C@H](O)C(=O)O; dDab = NCC[C@@H](N)C(=O)O; Orn = NCCC[C@H](N)C(=O)O; Dab = NCC[C@H](N)C(=O)O; Dap = NC[C@H](N)C(=O)O; Mpa = O=C(O)CCS

How the values were obtained:
Type in all cases: cell-based
[1] = tested on: Acinetobacter baumannii 872842; settings: 872842
Outline: (§1)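 Peptides are tested in serial two-fold dilutions against about 10^6 CFU/mL in MH-II broth containing 0.002% P-80 (v/v, final). Plates incubate 18-20 h at 35° C, and the MIC is the lowest peptide level (μg/mL) showing no visible growth.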

[2] = tested on: Acinetobacter baumannii DSM 30008; settings: DSM 30008
Outline: as §1

[3] = tested on: Enterobacter cloacae 848840; settings: 848840
Outline: as §1

[4] = tested on: Escherichia coli 926415; settings: 926415
Outline: as §1

[5] = tested on: Escherichia coli ATCC 25922; settings: ATCC 25922
Outline: as §1

[6] = tested on: Klebsiella pneumoniae 968733; settings: 968733
Outline: as §1

[7] = tested on: Klebsiella pneumoniae SSI #3010; settings: SSI #3010
Outline: as §1

[8] = tested on: Pseudomonas aeruginosa ATCC 27853; settings: ATCC 27853
Outline: as §1

[9] = tested on: human red blood cells (hRBC); test: Hemolysis; settings: red cells of human, 1 h, 200
Outline: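 Hemoglobin release from PBS-washed hRBC at 20% (v/v), incubated 1 h at 37° C with peptides at 200 μg/mL, is measured at 540 nm. Values are blank corrected and given as a fraction of Triton X-100 lysis × 100%.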

Row | SMILES | MIC [1] | Acinetobacter baumannii DSM 30008 MIC [2] | MIC [3] | MIC [4] | Escherichia coli ATCC 25922 MIC [5] | MIC [6] | Klebsiella pneumoniae SSI #3010 MIC [7] | Pseudomonas aeruginosa ATCC 27853 MIC [8] | Hemolysis at 200 μg/mL [9] | MIC [2] | MIC [5] | MIC [7] | MIC [8]
1 | CC(=O)N[C@H](C(=O)N[C@H]1CCNC(=O)CC[C@@H](C(=O)N[C@@H](CO)C(N)=O)NC(=O)[C@H](CC(C)C)NC(=O)[C@H](CO)NC(=O)[C@H](Cc2c[nH]c3ccccc23)NC(=O)[C@H](CO)NC(=O)[C@@H](CCN)NC(=O)[C@H](CCC(=O)N[C@@H](CCN)C(=O)N[C@H](C(=O)N[C@@H](CN)C(=O)N[C@H]2CCNC(=O)[C@H]([C@@H](C)O)NC(=O)[C@H](CCN)NC(=O)[C@H](CCN)NC(=O)[C@H](CC(C)C)NC(=O)[C@@H](CC(C)C)NC(=O)[C@H](CCN)NC2=O)[C@@H](C)O)NC(=O)[C@H](CCN)NC(=O)[C@H](Cc2ccc(O)cc2)NC1=O)C(C)C [Ex. 327] (I: Ac-V[Dab]Y[Dab]E[dDab]SWSLES-NH2 / II: [Dab]T[Dap][Dab][Dab][dL]L[Dab][Dab]T; lactam I:2-I:11, II:4-II:C; amide I:5-II:N) | 0.125 µg/mL (≈ 0.0517 µM) | 0.0625 µg/mL | 0.125 µg/mL (≈ 0.0517 µM) | 0.25 µg/mL (≈ 0.103 µM) | 0.0625 µg/mL | 0.5 µg/mL (≈ 0.207 µM) | 0.0625 µg/mL | 0.125 µg/mL | <1% | – | – | – | –
2 | CC(C)C[C@@H]1NC(=O)[C@@H](CC(C)C)NC(=O)[C@H](CCN)NC(=O)[C@@H](NC(=O)[C@H](CN)NC(=O)[C@@H](NC(=O)[C@H](CCN)NC(=O)CC[C@@H]2NC(=O)[C@H](CN)NC(=O)[C@H](Cc3ccc(O)cc3)NC(=O)[C@@H](NC(=O)[C@@H](O)C(C)C)CSSC[C@@H](C(=O)N[C@H](CO)[C@@H](C)O)NC(=O)[C@H](C(C)(C)C)NC(=O)[C@H](CO)NC(=O)[C@H](Cc3c[nH]c4ccccc34)NC(=O)[C@H](CCN)NC(=O)[C@@H](CCN)NC2=O)[C@@H](C)O)CCNC(=O)[C@H]([C@@H](C)O)NC(=O)[C@H](CCN)NC(=O)[C@H](CCN)NC1=O [Ex. 111] (I: H-[Hiv]CY[Dap]E[dDab][Dab]WS[Tle]C[Thr(ol)] / II: [Dab]T[Dap][Dab][Dab][dL]L[Dab][Dab]T; disulfide I:2-I:11; amide I:5-II:N; lactam II:4-II:C) | 0.0625 µg/mL (≈ 0.0264 µM) | – | 0.125 µg/mL (≈ 0.0527 µM) | 0.0625 µg/mL (≈ 0.0264 µM) | – | 0.125 µg/mL (≈ 0.0527 µM) | – | – | <1% | 0.03125 µg/mL (≈ 0.0132 µM) | 0.125 µg/mL (≈ 0.0527 µM) | 0.125 µg/mL (≈ 0.0527 µM) | 0.25 µg/mL (≈ 0.105 µM)
3 | CC[C@H](C)[C@@H]1NC(=O)[C@H](CO)NC(=O)[C@H](Cc2c[nH]c3ccccc23)NC(=O)[C@H](CO)NC(=O)[C@@H](CCN)NC(=O)[C@H](CCC(=O)N[C@@H](CCN)C(=O)N[C@H](C(=O)N[C@@H](CN)C(=O)N[C@H]2CCNC(=O)[C@H]([C@@H](C)O)NC(=O)[C@H](CCN)NC(=O)[C@H](CCN)NC(=O)[C@H](CC(C)C)NC(=O)[C@@H](CC(C)C)NC(=O)[C@H](CCN)NC2=O)[C@@H](C)O)NC(=O)[C@H](CN)NC(=O)[C@H](Cc2ccc(O)cc2)NC(=O)[C@@H](NC(=O)[C@@H](NC(C)=O)C(C)C)CCNC(=O)CC[C@@H](C(=O)N[C@@H](CO)C(N)=O)NC1=O [Ex. 322] (I: Ac-V[Dab]Y[Dap]E[dDab]SWSIES-NH2 / II: [Dab]T[Dap][Dab][Dab][dL]L[Dab][Dab]T; lactam I:2-I:11, II:4-II:C; amide I:5-II:N) | 0.0625 µg/mL (≈ 0.026 µM) | 0.0625 µg/mL | 0.0625 µg/mL (≈ 0.026 µM) | 0.125 µg/mL (≈ 0.052 µM) | 0.0625 µg/mL | 0.25 µg/mL (≈ 0.104 µM) | 0.125 µg/mL | 0.125 µg/mL | <1% | – | – | – | –
4 | CC(=O)N[C@@H](CCN)C(=O)N[C@H](C(=O)N[C@H](C(=O)N[C@@H](Cc1ccc(O)cc1)C(=O)N[C@@H](CN)C(=O)N[C@@H](CCC(=O)N[C@@H](CCN)C(=O)N[C@H](C(=O)N[C@@H](CN)C(=O)N[C@H]1CCNC(=O)[C@H]([C@@H](C)O)NC(=O)[C@H](CCN)NC(=O)[C@H](CCN)NC(=O)[C@H](CC(C)C)NC(=O)[C@@H](CC(C)C)NC(=O)[C@H](CCN)NC1=O)[C@@H](C)O)C(=O)N[C@H](CCN)C(=O)N[C@@H](CO)C(=O)N[C@@H](Cc1c[nH]c2ccccc12)C(=O)N[C@@H](CO)C(=O)N[C@H](C(=O)N[C@@H](CO)C(=O)N[C@H](C(=O)N[C@@H](CCC(=O)O)C(N)=O)C(C)C)C(C)(C)C)[C@@H](C)O)C(C)C [Ex. 249] (I: Ac-[Dab]VTY[Dap]E[dDab]SWS[Tle]SVE-NH2 / II: [Dab]T[Dap][Dab][Dab][dL]L[Dab][Dab]T; amide I:6-II:N; lactam II:4-II:C) | 0.03125 µg/mL (≈ 0.0119 µM) | – | 0.125 µg/mL (≈ 0.0476 µM) | 0.125 µg/mL (≈ 0.0476 µM) | – | 0.25 µg/mL (≈ 0.0953 µM) | – | – | 2% | 0.03125 µg/mL (≈ 0.0119 µM) | 0.03125 µg/mL (≈ 0.0119 µM) | 0.0625 µg/mL (≈ 0.0238 µM) | 0.125 µg/mL (≈ 0.0476 µM)
5 | CC(C)C[C@@H]1NC(=O)[C@@H](CC(C)C)NC(=O)[C@H](CCN)NC(=O)[C@@H](NC(=O)[C@H](CN)NC(=O)[C@@H](NC(=O)[C@H](CCN)NC(=O)CC[C@@H]2NC(=O)[C@H](CO)NC(=O)[C@H](Cc3ccc(O)cc3)NC(=O)[C@H]([C@@H](C)O)NC(=O)[C@H](C(C)C)NC(=O)CCSSC[C@@H](C(N)=O)NC(=O)[C@H]([C@@H](C)O)NC(=O)[C@H](C)NC(=O)[C@H](C(C)(C)C)NC(=O)[C@H](CCC(=O)O)NC(=O)[C@H](Cc3c[nH]c4ccccc34)NC(=O)[C@H](CCN)NC(=O)[C@@H](CCN)NC2=O)[C@@H](C)O)CCNC(=O)[C@H]([C@@H](C)O)NC(=O)[C@H](CCN)NC(=O)[C@H](CCN)NC1=O [Ex. 250] (I: [Mpa]VTYSE[dDab][Dab]WE[Tle]ATC-NH2 / II: [Dab]T[Dap][Dab][Dab][dL]L[Dab][Dab]T; disulfide I:1-I:14; amide I:6-II:N; lactam II:4-II:C) | 0.03125 µg/mL (≈ 0.0121 µM) | – | 0.0625 µg/mL (≈ 0.0242 µM) | 0.0625 µg/mL (≈ 0.0242 µM) | – | 0.125 µg/mL (≈ 0.0484 µM) | – | – | 1% | 0.03125 µg/mL (≈ 0.0121 µM) | 0.03125 µg/mL (≈ 0.0121 µM) | 0.0625 µg/mL (≈ 0.0242 µM) | 0.125 µg/mL (≈ 0.0484 µM)
6 | CC(C)C[C@@H]1NC(=O)[C@@H](CC(C)C)NC(=O)[C@H](CCN)NC(=O)[C@@H](NC(=O)[C@H](CN)NC(=O)[C@@H](NC(=O)[C@H](CCN)NC(=O)CC[C@@H]2NC(=O)[C@@H](CCN)NC(=O)[C@H](CCCN)NC(=O)[C@@H](NC(=O)[C@H](Cc3ccc(O)cc3)NC(=O)[C@@H](NC(=O)[C@@H](O)C(C)C)[C@@H](C)O)CSSC[C@@H](C(=O)N[C@H](C(=O)N[C@@H](C)C(=O)N[C@H](CO)[C@@H](C)O)C(C)(C)C)NC(=O)[C@H](Cc3c[nH]c4ccccc34)NC2=O)[C@@H](C)O)CCNC(=O)[C@H]([C@@H](C)O)NC(=O)[C@H](CCN)NC(=O)[C@H](CCN)NC1=O [Ex. 211] (I: H-[Hiv]TYC[Orn][dDab]EWC[Tle]A[Thr(ol)] / II: [Dab]T[Dap][Dab][Dab][dL]L[Dab][Dab]T; disulfide I:4-I:9; amide I:7-II:N; lactam II:4-II:C) | 0.0625 µg/mL (≈ 0.0262 µM) | – | 2 µg/mL (≈ 0.839 µM) | 0.25 µg/mL (≈ 0.105 µM) | – | 0.25 µg/mL (≈ 0.105 µM) | – | – | <1% | 0.03125 µg/mL (≈ 0.0131 µM) | 0.0625 µg/mL (≈ 0.0262 µM) | 0.0625 µg/mL (≈ 0.0262 µM) | 0.125 µg/mL (≈ 0.0524 µM)
7 | CC(C)C[C@@H]1NC(=O)[C@@H](CC(C)C)NC(=O)[C@H](CCN)NC(=O)[C@@H](NC(=O)[C@H](CCN)NC(=O)[C@@H](NC(=O)[C@H](CCN)NC(=O)CC[C@@H]2NC(=O)[C@H](CCN)NC(=O)[C@H](Cc3ccc(O)cc3)NC(=O)[C@@H](NC(=O)[C@@H](NC(=O)[C@H](N)CO)C(C)C)CSSC[C@@H](C(=O)N[C@@H](CO)C(=O)N[C@H](CO)C(=O)O)NC(=O)[C@H](C(C)(C)C)NC(=O)[C@H](CO)NC(=O)[C@H](Cc3c[nH]c4ccccc34)NC(=O)[C@H]([C@@H](C)O)NC(=O)[C@@H](CCN)NC2=O)[C@@H](C)O)CCNC(=O)[C@H]([C@@H](C)O)NC(=O)[C@H](CCN)NC(=O)[C@H](CCN)NC1=O [Ex. 242] (I: H-[dS]VCY[Dab]E[dDab]TWS[Tle]CS[dS]-OH / II: [Dab]T[Dab][Dab][Dab][dL]L[Dab][Dab]T; disulfide I:3-I:12; amide I:6-II:N; lactam II:4-II:C) | 0.125 µg/mL (≈ 0.0486 µM) | – | 4 µg/mL (≈ 1.55 µM) | 0.25 µg/mL (≈ 0.0971 µM) | – | 1 µg/mL (≈ 0.389 µM) | – | – | <1% | 0.125 µg/mL (≈ 0.0486 µM) | 0.0625 µg/mL (≈ 0.0243 µM) | 0.125 µg/mL (≈ 0.0486 µM) | 0.125 µg/mL (≈ 0.0486 µM)
